Data on one compound can be found in US12245999B2, “Valproic acid for the treatment or prevention of pathological conditions associated with excess fibrin deposition and/or thrombus formation” (Cereno Scientific AB, priority 2014, dated 2025).

Experiment [1] deals with PAI-1. Briefly: Proof-of-concept cross-over study in healthy subjects: plasma PAI-1 before and after valproic acid. It is filed as in vivo, human. The settings on record: 500 mg (Ergenyl Retard) twice daily during 14 days, p<0.05. The protocol:
(§1) The effects of VPA on PAI-1 were analysed in two different proof-of-concept studies in healthy subjects as well as in patients with manifest atherosclerotic disease. […] PAI-1 plasma levels were measured in the morning at the first day of the study as well as at the end of the treatment period with VPA (see example 2 for details on the PAI-1 analysis).
In the first study, 10 healthy non-smoking white male subjects (with mean BMI of approximately 26), aged 50-70 years were included and treated with valproic acid 500 mg (Ergenyl Retard, Sanofi) twice daily during 14 days.
(§2) The study comprises 20 patients with TIA/minor stroke. Patients are investigated before and after oral treatment with 400 mg valproic acid once time daily at 11 pm for 2 weeks. Plasma PAI-1 levels and plasma concentrations of valproic acid is followed daily during the study period at the following time-points: 3 am, 6 am, 10 am, 16 pm, 22 pm PAI-1 levels are measured by commercially available ELISA-kits (Coaliza PAI-1, Chromogenix AB) and the plasma concentration of valproic acid an metabolites thereof is analyzed according to clinical routine at the Sahlgrenska University laboratory, Gothenburg, Sweden.

Experiment [2] relates to PAI-1. Put plainly: In vivo model in mouse: plasma PAI-1. The settings on record: in vivo model in mouse (unpublished data).
For experiment [3], the system named is PAI-1. The settings on record: in vivo model in pig (Svennerholm et al., PLoS One 2014); cited from earlier work.
The test system of experiment [4] is PAI-1. Briefly: In vitro cultured endothelial cells: PAI-1 mRNA / production after VPA treatment. The format is cell-based.
Experiment [5] is described as follows: Clinical outcome study in high-risk patients: recurrent atherothrombotic events. The format is in vivo, human. To be noted: 400 mg once daily at 11 pm, long-term, expected. Here is the method:
A clinical outcome study is performed in high-risk patients who have experienced a recent major atherothrombotic cardiovascular event (myocardial infarction or TIA/ischemic stroke) to investigate the preventive effect of valproic acid treatment on the risk for recurrent events. The annual risk for a recurrent atherothrombotic event in the investigated population is estimated to approximately 7%. Patients are randomized in a parallel study design to receive double-blind oral treatment with 400 mg valproic acid (as in Example 2) or placebo once time daily at 11 pm, in addition to optimal conventional treatment. The event rate is monitored by Kaplan-Meyer statistics. The primary efficacy endpoint is the composite measure of either mortality, or non-fatal myocardial infarction or ischemic stroke. The study is event-driven to a total of 180 events.

The subject of experiment [6] is PAI-1. Briefly: Intermediate endpoint study in patients with TIA/minor stroke: plasma PAI-1 (ELISA). To be noted: 20 patients with TIA/minor stroke, 400 mg enteric-coated tablet once daily at 11 pm for 2 weeks. The format is in vivo, human. Here is the method:
An intermediate endpoint proof-of-concept study is performed in patients with TIA/minor stroke investigated before and after treatment with Valproic acid. Valproic acid is administrated as an enteric-coated tablet with delayed absorption.
as §2

For experiment [7], the system named is PAI-1. Briefly: Proof-of-concept cross-over study in patients with a history of myocardial infarction: plasma PAI-1 before and after valproic acid. To be noted: midmorning, p=0.01; for reduction in circulating plasma PAI-1 levels: 16 male patients with history of myocardial infarction, 500 mg (Ergenyl Retard) twice daily during 28 days on top of ordinary prescription. It is filed as in vivo, human. Here is the method: as §1
In the second study, 16 non-smoking white male patients, aged 50-80 years with a history of a myocardial infarction were included. On top of their ordinary prescription (beta-blocker, ACE-inhibitor, statin, aspirin) they were treated with valproic acid 500 mg (Ergenyl Retard, Sanofi), twice daily during 28 days.
as §2

Read-outs that look alike come from different tables or passages of the source.

In the case of `CCCC(CCC)C(=O)O` [valproic acid, 2-propylpentanoic acid], the “reduction in circulating plasma PAI-1 levels” value was “more than 50%” in the experiment with PAI-1 [1] (10 healthy male subjects, mid-morning vs before treatment); 45% with PAI-1 [7]; “about 45%” in the experiment on PAI-1 [7] (listed as VPA). The “circulating plasma PAI-1 level after treatment” value is 10.8 ng/mL in the experiment with PAI-1 [1] (healthy male subjects, mid-morning, 22.2 ng/ml before treatment) and 11 ng/mL with PAI-1 [7] (patients with history of myocardial infarction, 500 mg (Ergenyl Retard) twice daily during 28 days, 19.6 ng/ml before treatment). Further, the “effects on plasma PAI-1” value in the experiment with PAI-1 [2] and in the experiment on PAI-1 [3] was “did not detect any effects” in each case. The “PAI-1 mRNA levels after VPA treatment” value with PAI-1 [4] was “did not show a decrease”. In the experiment with PAI-1 [4] (slight but significant), the “increase in PAI-1 production” value is on record as 30%. For the same compound, in experiment [5] (in addition to conventional therapy), the “reduction of risk for recurrent atherothrombotic event” value is “approximately 30%”. In addition, in experiment [5] (estimated approximately 7% without treatment), the “annual absolute event rate” value is “approximately 5%”. Also, the “plasma PAI-1 levels lowered after the treatment” value with PAI-1 [6] is on record as “approximately 30%”.
